Results from ChEMBL document CHEMBL1681723, “Phellinstatin, a new inhibitor of enoyl-ACP reductase produced by the medicinal fungus Phellinus linteus” (Bioorg Med Chem Lett, 2011).
Values after ≈ are worked out from the molar mass of the structure shown. Active and inactive are the calls of the source. The rule behind the calls is not given here.

Assays:
[1] = system: Staphylococcus aureus; assay: Antibacterial activity against methicillin-resistant Staphylococcus aureus CCARM 3167; assay type: functional
[2] = target: T1, Enoyl-[acyl-carrier-protein] reductase [NADPH] FabI (Staphylococcus aureus) (UniProt Q6GI75); assay: (§1) Inhibition of Staphylococcus aureus enoyl-ACP reductase assessed as increase of NADPH level
T1 sequence (whole entry): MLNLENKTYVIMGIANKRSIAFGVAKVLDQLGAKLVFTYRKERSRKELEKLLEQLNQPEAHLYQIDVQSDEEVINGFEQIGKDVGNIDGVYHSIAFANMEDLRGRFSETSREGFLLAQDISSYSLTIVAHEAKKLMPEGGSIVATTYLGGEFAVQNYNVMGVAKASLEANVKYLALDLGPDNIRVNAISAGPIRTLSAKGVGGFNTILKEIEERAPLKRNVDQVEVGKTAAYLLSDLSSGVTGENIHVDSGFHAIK

[3] = target: T2, Enoyl-[acyl-carrier-protein] reductase [NADPH] FabI (Staphylococcus aureus, UniProt Q6GI75); assay: as §1
T2 sequence (Q6GI75 whole entry): T1 sequence (whole entry)

[4] = system: Staphylococcus aureus; assay: Antibacterial activity against Staphylococcus aureus RN4220; assay type: functional
[5] = system: Staphylococcus aureus; assay: Antibacterial activity against Staphylococcus aureus RN4220 at 128 ug/ml; assay type: functional, organism-based
[6] = system: Staphylococcus aureus; assay: Antibacterial activity against methicillin-resistant Staphylococcus aureus CCARM 3167 at 128 ug/ml; assay type: functional, organism-based

SMILES | MIC [1] | inhibition [2] | IC50 [3] | MIC [4] | Activity [5] | Activity [6]
O=c1cc(O)cc([C@H]2c3c(cc(/C=C/c4cc(O)c(O)cc4-c4c(O)cc(/C=C/c5ccc(O)c(O)c5)oc4=O)oc3=O)O[C@@H]2c2ccc(O)c(O)c2)o1 [PHELLINSTATIN] | 128 µg/mL (≈ 174 µM) | Dose-dependent effect | 6 µM | 128 µg/mL (≈ 174 µM) | – | –
O=c1cc(O)cc([C@H]2c3c(cc(/C=C/c4ccc(O)c(O)c4)oc3=O)O[C@@H]2c2ccc(O)c(O)c2)o1 [HYPHOLOMINE B] | – | – | 15.3 µM | – | inactive | inactive
